Measured values from patent US9808470B2, “Estrogenic components for use in the treatment of neurological disorders” (UNIVERSITE DE LIEGE, priority 2012, dated 2017).
Where “and” joins values, the source holds several entries; their conditions need not be identical. Equal values may be shown once.

Experiments:
[1] = tested on: intact cells in hippocampus and cortex; assay: Ex.2 neonatal HIE rat model, pre-treatment: hematoxylin-eosin staining and intact cell counting; assay type: in vivo
Method: (§1) Paraformaldehyde-fixed paraffin embedded samples of the removed brains were coronally sectioned at the same level of the hippocampus region in accordance to the Paxinos rat brain atlas (Paxinos and Watson 2007. In: The rat brain in stereotaxic coordinates, 6th edition). Thickness of sections was 5 μm. Hematoxylin-eosin staining was performed. Briefly, sections were deparaffinized in xylene and rehydrated in graded ethanol concentrations before staining. Slides were stained with hematoxylin, rinsed for a few seconds in water, then placed in 1% eosin and washed, dehydrated, and coverslipped.
(§2) Intact cell counting was performed on hematoxylin-eosin-stained sections of the rat pups brains at magnification 400× in 3 fields of the respective brain area. Countings were performed in cortex and hippocampus (regions: dentate gyrus (DG), subgranular zone (SGZ), cornu ammonis (CA1, CA2/CA3)). The sections were analyzed with the aid of a microscope (Olympus BX51, Olympus, Tokyo, Japan), an image scanner (DotSlide Digital Virtual Microscopy, Olympus, Germany) and ImageJ software (NIH, US).
(§3) Intact cells are uninjured. Injured cells are characterized by a pale eosinophilic staining along with non-uniform nuclear densities-shrunken, condensed, or pale and enlarged.
After delivery, newborn rat pups were assigned to one of the following 4 groups: Sham group, Vehicle group, E4 5 mg/kg/per day group and E4 50 mg/kg/per day group. From day 4 to day 7 inclusive, rat pups were injected intraperitoneally either vehicle (Vehicle group) or E4 (5 mg/kg or 50 mg/kg in accordance to the group assignment) or not injected at all (Sham group). At day 7, 30 minutes after last injection, animals from Vehicle and E4 (5 mg/kg or 50 mg/kg) groups passed through surgery encompassing left common carotid artery double ligation and cut, followed by hypoxia produced by the inhalation of 11%-8% of oxygen balanced by nitrogen at decreased concentration for 20 minutes, followed by inhalation of 8% oxygen and 92% nitrogen at constant concentration for 35 minutes. The Sham group went through similar procedures without left common carotid artery ligation and hypoxia. All the manipulations were performed at 37° C. Rat pups recovered with their dams until being sacrificed at postnatal day 14.

[2] = tested on: Microtubule-associated protein 2 (MAP2); assay: Ex.4 therapeutic HIE rat model: MAP2 staining; assay type: in vivo; conditions: PND14
Method: The brain sections were processed for immunohistochemical detection of neuronal cytoskeletal disruption. For antigen retrieval, the sections were heated in 10 mmol/L citrate buffer (pH 6.0) at 100° C. for 10 minutes. Endogenous peroxidase activity was blocked with 3% hydrogen peroxide for 10 minutes and after a second blocking with 5% normal goat serum, the sections were incubated with anti-microtubule-associated protein 2 (MAP2) antibody, diluted 1:1000 (mouse monoclonal antibody; Sigma, St. Louis, Mo., US) 1 h at room temperature. After rinsing, biotinylated goat anti-mouse immunoglobulin G (Vector Laboratories, Burlingame, Calif.) was added, and antibody detection was performed with the avidin-biotin complex method (Vector Laboratories), with 3,3′-diaminobenzidine (DAB) as the chromogen. Following the reaction with DAB, the slides were washed, dehydrated, and coverslipped.
Samples were analyzed with the aid of an image scanner (Nanozoomer Virtual Microscopy, Hamamatsu, Tokyo, Japan) and the ImageJ software (NIH, US). The MAP2 positive areas in the ipsilateral and contralateral hemispheres were measured. The ratio of the MAP2 positive areas was calculated as the MAP2 positive area of the ipsilateral hemisphere divided by the MAP2 positive area of the contralateral hemisphere. The ratio of the MAP2 positive area in the Sham group was considered by default as 1.0.
To study the therapeutic effect of estetrol, newborn rat pups were assigned to one of the following 6 groups at postnatal day 7: sham group (n=29), vehicle group (n=20), 1 mg/kg E4 group (n=16), 5 mg/kg E4 group (n=19), 10 mg/kg day E4 (n=17) and 50 mg/kg day E4 group (n=15). At postnatal day 7 animals were anesthetized with isoflurane (induction, 3.0%; maintenance, 1.5%), and the rat pups from vehicle and E4 groups passed through surgery encompassing left common carotid artery double ligation and cut. After surgery, the pups were returned to their dams and allowed to recover for 1 hour. The pups were then placed in a humidified hypoxic in vivo cabinet (CoyLab). Hypoxia was produced by the inhalation of 11%-8% of oxygen balanced by nitrogen at decreased concentration of oxygen for 20 minutes, followed by inhalation of 8% oxygen and 92% nitrogen at constant concentration for 35 minutes. All the manipulations were performed at 37° C.
Upon retrieval from the hypoxia chamber the rat pups were injected intraperitoneally either by vehicle (vehicle group) or by E4 (1 mg/kg, 5 mg/kg, 10 mg/kg or 50 mg/kg) in accordance to the group assignment. The animals from the sham group went through similar procedures but proceeded neither left common carotid artery ligation and cut followed by hypoxia nor vehicle or estetrol administration. Rat pups recovered with their dams until being sacrificed at postnatal day 14.

[3] = octanol-water; depending on experimental settings; listed as estetrol; cited from earlier work
[4] = tested on: intact cells in hippocampus and cortex; assay: Ex.3 neuroprotective HIE rat model: intact cell counting; assay type: in vivo
Method: as §1, §2, §3
Newborn rat pups were assigned to one of the following 6 groups from postnatal day 4: Sham group (n=24), Vehicle group (n=14), E4 1 mg/kg/per day group (n=11), E4 5 mg/kg/per day group (n=14), E4 10 mg/kg/per day group (n=14), or E4 50 mg/kg/per day group (n=19). From postnatal day 4, rat pups were intraperitoneally injected either vehicle (Vehicle group) or E4 (1, 5, 10, or 50 mg/kg/per day in accordance to the E4 group assignment) or neither vehicle nor E4 (Sham group). At day 7, 30 minutes after last injection, animals were anesthetized with isoflurane (induction, 3.0%; maintenance, 1.5%), and the rat pups from Vehicle and E4 groups passed through surgery encompassing left common carotid artery double ligation and cut. After the procedure, the pups were returned to their dams and were allowed to recover for 1 hour. The pups were then placed in the humidified hypoxic in vivo cabinet (CoyLab, Grass Lake, Mich., USA). Hypoxia was produced by the inhalation of 11%-8% of oxygen balanced by nitrogen at decreased concentration of oxygen for 20 minutes, followed by inhalation of 8% oxygen and 92% nitrogen at constant concentration for 35 minutes. All the manipulations were performed at 37° C. The Sham group went through similar procedures without left common carotid artery ligation followed by hypoxia nor injection. Rat pups recovered with their dams and reared normally until being sacrificed at postnatal day 14.

SMILES: C[C@]12CC[C@@H]3c4ccc(O)cc4CC[C@H]3[C@@H]1[C@@H](O)[C@@H](O)[C@@H]2O [E4, 1,3,5(10)-estratrien-3,15α,16α,17β-tetrol]
- number of intact cells per visual field ([1]; E4 5 mg/kg ip day 4-7 before HI, DG, vs Vehicle): significantly higher
- number of intact cells per visual field ([1]; E4 5 mg/kg ip day 4-7 before HI, SGZ, vs Sham and Vehicle): significantly higher
- number of intact cells per visual field ([1]; E4 50 mg/kg ip day 4-7 before HI, CA2/CA3, vs Vehicle and E4 5 mg/kg): significantly higher number of intact cells
- number of intact cells per visual field ([1]; E4 50 mg/kg ip day 4-7 before HI, cortex, vs Vehicle): significantly higher number of intact cells
- number of intact cells per visual field ([1]; E4 5 and 50 mg/kg ip day 4-7 before HI, CA1, among study groups): non-significant difference
- Hematoxylin-Eosin staining of hippocampus region ([1]; E4 5 and 50 mg/kg ip day 4-7 before HI, day 14): neuroprotective effect
- ratio of MAP2-positive area (ipsilateral/contralateral) ([2]; 1 mg/kg E4 single ip dose after HI): 0.943±0.028
- ratio of MAP2-positive area (ipsilateral/contralateral) ([2]; 5 mg/kg E4 single ip dose after HI): 0.89±0.037
- ratio of MAP2-positive area (ipsilateral/contralateral) ([2]; 10 mg/kg E4 single ip dose after HI): 0.938±0.044
- ratio of MAP2-positive area (ipsilateral/contralateral) ([2]; 50 mg/kg E4 single ip dose after HI): 0.966±0.036
- Pow Log [3]: 1.47 and 1.695
- number of intact cells per visual field ([4]; 1 mg/kg E4 ip PND4-7 before HI, CA1): 43.2±2.435
- number of intact cells per visual field ([4]; 1 mg/kg E4 ip PND4-7 before HI, CA2/CA3): 32.8±2.808
- number of intact cells per visual field ([4]; 1 mg/kg E4 ip PND4-7 before HI, SGZ): 35.6±2.75
- number of intact cells per visual field ([4]; 5 mg/kg E4 ip PND4-7 before HI, DG): 121.0±8.098
- number of intact cells per visual field ([4]; 5 mg/kg E4 ip PND4-7 before HI, SGZ): 42.846±3.884
- number of intact cells per visual field ([4]; 10 mg/kg E4 ip PND4-7 before HI, CA1): 57.4±4.566
- number of intact cells per visual field ([4]; 10 mg/kg E4 ip PND4-7 before HI, SGZ): 47.6±4.672
- number of intact cells per visual field ([4]; 50 mg/kg E4 ip PND4-7 before HI, CA2/CA3): 53.0±4.7
- number of intact cells per visual field ([4]; 50 mg/kg E4 ip PND4-7 before HI, SGZ): 30.714±3.615
- number of intact cells per visual field ([4]; 50 mg/kg E4 ip PND4-7 before HI, cortex): 76.286±3.962
